# From US8653092B2, “Tetrahydro-pyrido-pyrimidine derivatives” (Novartis AG, priority 2010, dated 2014)
# Read-outs that look alike come from different tables or passages of the source.
# Key:
# [1] = molecular target: human phosphoinositide-3 kinase (PI3K) delta (Homo sapiens (Human), UniProt O00329); experiment: PI3K-mediated Akt 1/2 (S473) phosphorylation in Rat-1 cells (AlphaScreen SureFire); assay type: cell-based; settings: Rat-1 cells overexpressing myristoylated human PI3K delta, p-Akt (Ser473); read-out: Cell PI3Kδ/ IC50 [umol l − 1]
# Description: Rat-1 cells stably overexpressing a myristoylated form of the catalytic subunit of human phosphoinositide-3 kinase (PI3K) alpha, beta or delta were plated in 384-well plates at a density of 7500 (PI3K alpha), 6200 (PI3K beta), or 4000 (PI3K delta) cells in 30 ul complete growth medium (Dulbecco's modified Eagle's medium (DMEM high glucose) supplemented with 10% (v/v) fetal bovine serum, 1% (v/v) MEM non essential amino acids, 10 mM HEPES, 2 mM L-glutamine, 10 μg/mL puromycin and 1% (v/v) Penicillin/Streptomycin) and were incubated at […]/5% CO2/95% humidity for 24 h. Compounds were diluted in 384-well compound plates to obtain 8-point serial dilutions for 40 test compounds in 90% DMSO, as well as 4 reference compounds plus 16 high controls and 16 low (inhibited) controls. Predilution plates were prepared by dispensing pipetting 250 nl of compound solutions into 384-well polypropylen plates using a Hummingwell nanoliter dispensor. Compounds were prediluted by the addition of 49.75 ul complete growth medium. 10 ul of prediluted compound solution were transferred to the cell plate using a 384-well pipettor, resulting in a final DMSO concentration of 0.11%. Cells were incubated for 1 h at […]/5% CO2/95% humidity. The supernatant was removed, the cells were lysed in 20 ul of lysis buffer for AlphaScreen® SureFire® detection.
# For detection of p-AKT (Ser473), the SureFire® p-Akt 1/2 (Ser473) Assay Kit (PerkinElmer, U.S.A) was used. 5 ul of cell lysate was transferred to 384-well low volume Proxiplates for detection using a 384-well pipettor. Addition of AlphaScreen® SureFire® reagents was done according to the manufacturer's protocol. First, 5 ul of reaction buffer plus activation buffer mix containing AlphaScreen® acceptor beads was added, the plate was sealed, and incubated on a plate shaker for 2 hours at room temperature. Second, 2 ul of dilution buffer containing AlphaScreen® donor beads was added, and the plate was incubated on plate shaker as above for a further 2 hours. The plate was read on an AlphaScreen® compatible plate reader, using standard AlphaScreen® settings.
# [2] = tested on: murine B cells; experiment: Murine B cell activation: CD86 upregulation after anti-IgM stimulation; assay type: cell-based, mouse; settings: read-out: mCD86/IC50 CD86 [nmol l − 1]
# Description: Spleens from Balb/c mice were collected, splenocytes were isolated and washed twice with RPMI containing 10% foetal bovine serum (FBS), 10 mM HEPES, 100 Units/mL penicilline/streptomycine. RPMI supplemented in this way is subsequently referred to as medium. The cells were adjusted to 2.5×10^6 cells/mL in medium and 200 μl cell suspension (5×10^6 cells) were added to the appropriate wells of 96 well plates.
# Then the cells were stimulated by adding 50 μl anti-IgM mAb in medium (final concentration: 30 μg/mL). After incubation for 24 hours at 37° C., the cells were stained with the following antibody cocktails: anti-mouse CD86-FITC, anti-mouse CD69-PerCP-Cy5.5, anti-mouse CD19-PerCP for the assessment of B cells, and anti-mouse CD3-FITC, anti-mouse CD69-PE for the assessment of T cells (2 μl of each antibody/well). After one hour at room temperature (RT) in the dark the cells were transferred to 96 Deepwell plates. The cells were washed once with 1 mL PBS containing 2% FBS and after re-suspension in 200 μl the samples were analyzed on a FACS Calibur flow cytometer. Lymphocytes were gated in the FSC/SSC dot plot according to size and granularity and further analyzed for expression of CD19, CD3 and activation markers (CD86, CD69). Data were calculated from dot blots as percentage of cells positively stained for activation markers within the CD19+ or CD3+ population using BD CellQest Software.
# For assessing the inhibitory property of compounds, compounds were first dissolved and diluted in DMSO followed by a 1:50 dilution in medium. Splenocytes from Balb/c mice were isolated, re-suspended and transfered to 96 well plates as described above (200 μl/well). The diluted compounds or solvent were added to the plates (25 μl) and incubated at 37° C. for 1 hour. Then the cultures were stimulated with 25 μl anti-IgM mAb/well (final concentration […]) for 24 hours at 37° C. and stained with anti-mouse CD86-FITC and anti-mouse CD19-PerCP (2 μl of each antibody/well). CD86 expression on CD19 positive B cells was quantified by flow cytometry as described above.
# [3] = tested on: antibody production to sheep red blood cells (SRBC); experiment: Antibody production to sheep red blood cells (SRBC), plaque forming assay; assay type: in vivo, rat; settings: OFA rats, 10 mg/kg bid orally d0-d3, spleens on d4
# Description: In brief, OFA rats were injected i.v. with sheep erythrocytes on d0 and treated orally on four consecutive days (d0 to d3) with the compounds under investigation. Spleen cell suspensions were prepared on d4 and lymphocytes were plated onto soft agar in presence of indicator cells (SRBC) and complement. Lysis of the indicator cells due to secretion of SRBC-specific antibody (predominantly of the IgM subclass) and presence of complement yielded plaques. The number of plaques per plate were counted and expressed as number of plaques per spleen.
# Immunization: Groups of five female OFA rats were immunized on day 0 with 2×10^8/ml SRBC (obtained from Laboratory Animal Services LAS, Novartis Pharma AG) in a volume of 0.5 ml per rat by i.v. injection. […]
# On day 4, animals were euthanized with CO2 Spleens were removed, weighed, and deposited in plastic tubes containing 10 ml of cold (4° C.) Hank's balanced salt solution (HBSS; Gibco, pH 7.3, containing 1 mg Phenolred/100 ml) for each rat spleen. […] Lymphocyte numbers per spleen were determined by automated cell counter and spleen cell suspensions were adjusted to a cell concentration of 30×10^6/ml. […]
# In addition, one ml of 0.7% agarose was prepared in plastic tubes and kept at 48° C. in a water bath. […] Plaques were counted with a microscope. […]
# [4] = molecular target: PI3K alpha (Homo sapiens (Human), UniProt P42336); experiment: Enzymatic PI3K alpha isoform inhibition (lipid kinase, Kinase-Glo luminescence); assay type: biochemical
# [5] = molecular target: PI3K delta (Homo sapiens (Human), UniProt O00329); experiment: Enzymatic PI3K delta isoform inhibition (lipid kinase, Kinase-Glo luminescence); assay type: biochemical; settings: enzymatic assay
# [6] = Balb/c mouse splenocytes, anti-IgM 24 h, CD86 on CD19+ B cells
# Chain of human phosphoinositide-3 kinase (PI3K) delta (O00329 whole entry): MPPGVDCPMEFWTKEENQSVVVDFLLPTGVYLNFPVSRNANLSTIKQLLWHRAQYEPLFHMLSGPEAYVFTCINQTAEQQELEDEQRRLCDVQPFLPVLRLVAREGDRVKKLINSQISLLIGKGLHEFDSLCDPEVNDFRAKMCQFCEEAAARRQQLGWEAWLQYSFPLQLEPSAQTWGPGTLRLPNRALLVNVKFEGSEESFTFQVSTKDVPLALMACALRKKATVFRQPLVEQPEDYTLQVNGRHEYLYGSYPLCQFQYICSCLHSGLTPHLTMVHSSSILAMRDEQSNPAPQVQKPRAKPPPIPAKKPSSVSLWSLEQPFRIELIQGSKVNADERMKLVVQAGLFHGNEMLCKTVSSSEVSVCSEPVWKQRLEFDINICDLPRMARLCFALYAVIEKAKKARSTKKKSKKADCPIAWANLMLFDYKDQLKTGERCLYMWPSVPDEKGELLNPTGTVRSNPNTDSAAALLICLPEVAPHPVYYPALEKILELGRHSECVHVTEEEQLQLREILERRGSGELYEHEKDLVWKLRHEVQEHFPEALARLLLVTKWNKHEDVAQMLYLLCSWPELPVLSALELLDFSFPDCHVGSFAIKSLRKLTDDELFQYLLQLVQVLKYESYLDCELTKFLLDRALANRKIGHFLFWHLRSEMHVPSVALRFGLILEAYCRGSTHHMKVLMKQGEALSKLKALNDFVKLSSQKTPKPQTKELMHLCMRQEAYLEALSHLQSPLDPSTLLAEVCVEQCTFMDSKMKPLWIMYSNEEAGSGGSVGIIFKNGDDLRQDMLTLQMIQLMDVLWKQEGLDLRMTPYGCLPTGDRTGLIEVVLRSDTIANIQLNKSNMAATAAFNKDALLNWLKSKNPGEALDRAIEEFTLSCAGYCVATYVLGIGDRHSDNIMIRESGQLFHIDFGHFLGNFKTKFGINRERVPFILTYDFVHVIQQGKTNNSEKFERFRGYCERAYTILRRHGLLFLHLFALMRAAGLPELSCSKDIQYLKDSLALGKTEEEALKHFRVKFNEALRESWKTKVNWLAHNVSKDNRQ
# Chain of human phosphoinositide-3 kinase (PI3K) delta (Q63787 whole entry partner): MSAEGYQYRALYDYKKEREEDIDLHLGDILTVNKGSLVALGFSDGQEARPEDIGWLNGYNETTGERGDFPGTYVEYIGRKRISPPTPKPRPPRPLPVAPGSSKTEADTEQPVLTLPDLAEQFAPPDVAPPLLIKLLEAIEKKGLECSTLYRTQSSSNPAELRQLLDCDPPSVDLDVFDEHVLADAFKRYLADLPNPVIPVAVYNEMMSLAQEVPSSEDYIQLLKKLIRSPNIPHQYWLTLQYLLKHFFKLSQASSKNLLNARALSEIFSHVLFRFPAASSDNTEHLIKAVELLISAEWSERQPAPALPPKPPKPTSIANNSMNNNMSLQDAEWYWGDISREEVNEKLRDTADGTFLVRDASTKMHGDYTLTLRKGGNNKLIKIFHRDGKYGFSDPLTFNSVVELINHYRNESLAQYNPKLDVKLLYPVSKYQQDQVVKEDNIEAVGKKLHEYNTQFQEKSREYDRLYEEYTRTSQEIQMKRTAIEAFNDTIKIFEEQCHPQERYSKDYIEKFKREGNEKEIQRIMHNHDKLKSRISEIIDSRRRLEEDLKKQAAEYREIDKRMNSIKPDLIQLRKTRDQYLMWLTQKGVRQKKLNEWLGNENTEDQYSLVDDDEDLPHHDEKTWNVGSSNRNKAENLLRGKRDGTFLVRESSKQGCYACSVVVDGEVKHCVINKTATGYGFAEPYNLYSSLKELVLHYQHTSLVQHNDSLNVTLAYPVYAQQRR
# Chain of PI3K delta (O00329 other isoform, or with tags, fused parts or gaps linker GGGGGG): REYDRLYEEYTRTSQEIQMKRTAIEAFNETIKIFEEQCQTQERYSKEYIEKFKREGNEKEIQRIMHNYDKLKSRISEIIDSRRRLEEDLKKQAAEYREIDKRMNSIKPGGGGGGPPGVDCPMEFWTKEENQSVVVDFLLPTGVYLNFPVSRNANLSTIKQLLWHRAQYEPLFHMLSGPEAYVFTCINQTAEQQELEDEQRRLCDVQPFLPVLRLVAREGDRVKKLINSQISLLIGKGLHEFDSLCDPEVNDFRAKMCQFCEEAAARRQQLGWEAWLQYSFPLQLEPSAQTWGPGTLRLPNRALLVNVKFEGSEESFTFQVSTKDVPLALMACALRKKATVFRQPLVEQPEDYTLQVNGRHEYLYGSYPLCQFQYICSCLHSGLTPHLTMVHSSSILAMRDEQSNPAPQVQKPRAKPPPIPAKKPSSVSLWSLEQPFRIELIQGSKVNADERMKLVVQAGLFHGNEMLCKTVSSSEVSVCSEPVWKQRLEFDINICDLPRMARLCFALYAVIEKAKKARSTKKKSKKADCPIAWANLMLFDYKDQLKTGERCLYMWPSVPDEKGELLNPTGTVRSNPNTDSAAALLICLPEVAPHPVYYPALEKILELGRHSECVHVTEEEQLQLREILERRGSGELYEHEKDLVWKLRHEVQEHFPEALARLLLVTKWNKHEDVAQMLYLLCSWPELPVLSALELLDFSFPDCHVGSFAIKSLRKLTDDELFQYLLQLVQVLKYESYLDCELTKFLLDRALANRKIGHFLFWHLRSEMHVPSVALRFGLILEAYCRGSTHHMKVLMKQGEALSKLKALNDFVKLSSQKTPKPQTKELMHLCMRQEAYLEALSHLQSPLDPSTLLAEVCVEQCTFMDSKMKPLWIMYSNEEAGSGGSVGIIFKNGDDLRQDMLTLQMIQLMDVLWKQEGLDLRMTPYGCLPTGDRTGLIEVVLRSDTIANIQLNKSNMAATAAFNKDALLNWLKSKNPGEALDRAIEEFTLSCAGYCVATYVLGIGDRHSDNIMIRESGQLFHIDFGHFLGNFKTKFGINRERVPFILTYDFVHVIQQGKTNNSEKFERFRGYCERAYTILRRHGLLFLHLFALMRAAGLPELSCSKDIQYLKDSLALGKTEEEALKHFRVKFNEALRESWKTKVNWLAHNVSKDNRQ
# Chain of PI3K alpha (P42336 other isoform, or with tags, fused parts or gaps): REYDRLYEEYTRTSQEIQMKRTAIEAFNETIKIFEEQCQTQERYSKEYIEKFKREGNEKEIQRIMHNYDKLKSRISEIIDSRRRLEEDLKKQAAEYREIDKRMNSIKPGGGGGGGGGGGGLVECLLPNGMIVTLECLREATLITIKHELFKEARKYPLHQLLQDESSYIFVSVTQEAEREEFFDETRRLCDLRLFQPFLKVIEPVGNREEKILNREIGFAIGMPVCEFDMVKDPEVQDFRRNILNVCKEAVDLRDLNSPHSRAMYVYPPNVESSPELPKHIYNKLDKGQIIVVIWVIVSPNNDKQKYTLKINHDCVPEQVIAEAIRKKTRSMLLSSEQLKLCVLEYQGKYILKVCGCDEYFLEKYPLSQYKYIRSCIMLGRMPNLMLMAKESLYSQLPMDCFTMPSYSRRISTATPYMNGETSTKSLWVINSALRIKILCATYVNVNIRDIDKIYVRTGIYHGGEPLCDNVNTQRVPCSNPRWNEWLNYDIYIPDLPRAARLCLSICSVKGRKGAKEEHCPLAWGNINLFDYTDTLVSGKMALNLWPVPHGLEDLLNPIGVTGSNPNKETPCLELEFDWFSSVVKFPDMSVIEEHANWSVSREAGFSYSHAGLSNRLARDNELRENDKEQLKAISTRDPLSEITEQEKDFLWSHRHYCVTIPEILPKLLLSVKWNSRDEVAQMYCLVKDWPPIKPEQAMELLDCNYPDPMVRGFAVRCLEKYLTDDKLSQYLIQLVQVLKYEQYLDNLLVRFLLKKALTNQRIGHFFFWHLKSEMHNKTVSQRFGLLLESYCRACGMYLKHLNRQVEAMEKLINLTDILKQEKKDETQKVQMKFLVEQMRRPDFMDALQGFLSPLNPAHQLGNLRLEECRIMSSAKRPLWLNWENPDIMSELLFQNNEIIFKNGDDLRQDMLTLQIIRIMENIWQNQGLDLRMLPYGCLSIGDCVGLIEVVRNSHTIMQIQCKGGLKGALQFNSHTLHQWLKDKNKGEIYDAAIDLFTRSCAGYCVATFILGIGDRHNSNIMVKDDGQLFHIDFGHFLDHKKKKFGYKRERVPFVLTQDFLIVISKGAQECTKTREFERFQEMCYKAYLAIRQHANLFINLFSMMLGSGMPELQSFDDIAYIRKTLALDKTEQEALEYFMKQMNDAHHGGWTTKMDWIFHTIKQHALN
IC50 [1],"IC50 [2, 6]",IC50 ([4]; enzymatic assay),IC50 [5],Compound,Plaques/spleen [3],"IC50 ([2]; Mus musculus, 24 h)",IC50 [4]
0.153 µM,0.0949 µM,,,"COc1ncc(N2CCc3ncnc(O[C@H]4CCN(C(=O)C5CCOCC5)C4)c3C2)cc1C [Example 1, {(S)-3-[6-(6-Methoxy-5-methyl-pyridin-3-yl)-5,6,7,8-tetrahydro-pyrido[4,3-d]pyrimidin-4-yloxy]-pyrrolidin-1-yl}-(tetrahydro-pyran-4-yl)-methanone]",12608 ± 4986,,
0.455 µM,0.125 µM,0.749 µM,0.02 µM,"COc1cc(N2CCc3ncnc(O[C@H]4CCN(C(=O)C5CCOCC5)C4)c3C2)cnc1OC [Example 5, {(S)-3-[6-(5,6-Dimethoxy-pyridin-3-yl)-5,6,7,8-tetrahydro-pyrido[4,3-d]pyrimidin-4-yloxy]-pyrrolidin-1-yl}-(tetrahydro-pyran-4-yl)-methanone]",,,
0.254 µM,0.12 µM,1.84 µM,0.048 µM,"COc1ncc(N2CCc3ncnc(O[C@H]4CCN(C(=O)c5cn(C)cn5)C4)c3C2)cc1C [Example 20, {(S)-3-[6-(6-Methoxy-5-methyl-pyridin-3-yl)-5,6,7,8-tetrahydro-pyrido[4,3-d]pyrimidin-4-yloxy]-pyrrolidin-1-yl}-(1-methyl-1H-imidazol-4-yl)-methanone]",,,
0.268 µM,0.0716 µM,1.21 µM,0.004 µM,"COc1ncc(N2CCc3ncnc(O[C@H]4CCN(C(=O)c5oc(C)nc5C)C4)c3C2)cc1C#N [Example 28, 5-{4-[(S)-1-(2,4-Dimethyl-oxazole-5-carbonyl)-pyrrolidin-3-yloxy]-7,8-dihydro-5H-pyrido[4,3-d]pyrimidin-6-yl}-2-methoxy-nicotinonitrile]",,,
0.191 µM,0.57 µM,0.738 µM,0.023 µM,"COc1ncc(N2CCc3ncnc(O[C@H]4CCN(c5ccccn5)C4)c3C2)cc1C(F)(F)F [Example 65, 6-(6-Methoxy-5-trifluoromethyl-pyridin-3-yl)-4-((S)-1-pyridin-2-yl-pyrrolidin-3-yloxy)-5,6,7,8-tetrahydro-pyrido[4,3-d]pyrimidine]",,,
0.053 µM,0.0149 µM,0.043 µM,0.007 µM,"COc1ncc(N2CCc3ncnc(N[C@H]4CCN(C(=O)C5CCOCC5)C4)c3C2)cc1C(F)(F)F [Example 68, {(S)-3-[6-(6-Methoxy-5-trifluoromethyl-pyridin-3-yl)-5,6,7,8-tetrahydro-pyrido[4,3-d]pyrimidin-4-ylamino]-pyrrolidin-1-yl}-(tetrahydro-pyran-4-yl)-methanone]",,,
0.246 µM,0.0865 µM,0.651 µM,0.02 µM,"CCC(=O)N1CC[C@H](Nc2ncnc3c2CN(c2cnc(OC)c(C)c2)CC3)C1 [Example 81, 1-{(S)-3-[6-(6-Methoxy-5-methyl-pyridin-3-yl)-5,6,7,8-tetrahydro-pyrido[4,3-d]pyrimidin-4-ylamino]-pyrrolidin-1-yl}-propan-1-one]",,,
0.116 µM,0.0462 µM,0.066 µM,0.003 µM,"COc1ncc(N2CCc3ncnc(N[C@H]4CCN(C(=O)C5CCOCC5)C4)c3C2)cc1Cl [Example 82, {(S)-3-[6-(5-Chloro-6-methoxy-pyridin-3-yl)-5,6,7,8-tetrahydro-pyrido[4,3-d]pyrimidin-4-ylamino]-pyrrolidin-1-yl}-(tetrahydro-pyran-4-yl)-methanone]",,,
,,0.757 µM,0.053 µM,"COc1ccc(N2CCc3ncnc(O[C@H]4CCN(C(=O)C5CCOCC5)C4)c3C2)cn1 [Example 95, {(S)-3-[6-(6-Methoxy-pyridin-3-yl)-5,6,7,8-tetrahydro-pyrido[4,3-d]pyrimidin-4-yloxy)pyrrolidin-1-yl}-(tetrahydro-pyran-4-yl)-methanone]",,,

Compound,IC50 [1],"IC50 [2, 6]",IC50 ([4]; enzymatic assay),IC50 [5],Plaques/spleen [3],"IC50 ([2]; Mus musculus, 24 h)",IC50 [4]
"CCC(=O)N1CC[C@H](Nc2ncnc3c2CN(c2cnc(OC)c(C(F)(F)F)c2)CC3)C1 [Example 67, 1-{(S)-3-[6-(6-Methoxy-5-trifluoromethyl-pyridin-3-yl)-5,6,7,8-tetrahydro-pyrido[4,3-d]pyrimidin-4-ylamino]-pyrrolidin-1-yl}-propan-1-one]",,,0.262 µM,,,0.0483 µM,
"COc1ncc(N2CCc3ncnc(N[C@H]4CCN(C(=O)C5CCOC(C)(C)C5)C4)c3C2)cc1C(F)(F)F (stereo partly drawn) [Example 71, (2,2-Dimethyl-tetrahydro-pyran-4-yl)-{(S)-3-[6-(6-methoxy-5-trifluoromethyl-pyridin-3-yl)-5,6,7,8-tetrahydro-pyrido[4,3-d]pyrimidin-4-ylamino]-pyrrolidin-1-yl}-methanone]",0.035 µM,0.0247 µM,,0.003 µM,,,0.057 µM
